In patent US20150219624A1, “METHODS FOR IDENTIFYING ANTI-CANCER COMPOUNDS” (MEMORIAL SLOAN KETTERING CANCER CENTER, priority 2013, published 2015):
Several values for one entry are separate records, joined by “and”; a condition that tells them apart may be missing. Identical values can stand only once.

Assay: In vivo toxicity studies (body and organ weights, hematology, clinical chemistry, histopathology)
Protocol: Toxicity studies. Eight week-old C57Bl/6NTac female mice were randomly assigned to either control or treatment groups. Each treatment group received one daily dose of test article through i.p. injection over 5 consecutive days. Toxicity was monitored by weight loss and daily clinical observation for the 14 days following test article administration. 24 hours after the last test article administration 4 mice in each group were sacrificed and clinical chemistry, hematology and tissue specific histopathology were done at autopsy. The remaining mice (n=2 per group) were kept under observation for an additional 13 days; at that point all mice were sacrificed and clinical chemistry, hematology and tissue specific histopathology were done at time of autopsy.
D) KOPT-K1 xenograft studies.

[1] = 0.2 mg/kg, female, Day 5, individual animals
[2] = 0.2 mg/kg, female, Day 19, % change of mean vs vehicle
[3] = 0.2 mg/kg, female, Day 19, group mean
[4] = 0.2 mg/kg, female, Day 19, individual animals
[5] = bone marrow cytology, count of 300 total cells, individual animals Treatment #7-#10
[6] = bone marrow cytology, individual animals Treatment #7-#10
[7] = spleen cytology, individual animals Treatment #7-#10
[8] = therapeutic doses (0.2 mg/kg i.p.)

## (±)-CR-31-B
[1]
  NEUT: 1.05 K/uL and 1.69 K/uL and 1.40 K/uL and 1.70 K/uL
  NEUT %: 21.94% and 24.51% and 28.20% and 24.44%
  Na: 152 mEq/L and 147 mEq/L (2×) and 150 mEq/L
  PLT: 872 K/uL and 673 K/uL and 676 K/uL and 682 K/uL
  RBC: 9.31 M/uL and 8.95 M/uL and 8.69 M/uL and 8.89 M/uL
  RDW %: 15.6% and 16.1% and 15.2% and 16.4%
  Right Kidney: 0.119 gm and 0.125 gm (2×) and 0.135 gm and 0.75 % body wt and 0.73 % body wt and 0.77 % body wt and 0.78 % body wt
  Spleen: 0.049 gm and 0.070 gm and 0.086 gm and 0.064 gm and 0.31 % body wt and 0.41 % body wt and 0.49 % body wt and 0.40 % body wt
  TBIL: 0.2 mg/d L (3×) and 0.1 mg/d L
  TP: 5.1 g/dL and 4.8 g/dL (2×) and 4.9 g/dL
  WBC: 4.78 K/uL and 6.90 K/uL and 4.98 K/uL and 6.96 K/uL
[2]
  BASO % % ChVh: 27.3%
  BASO (K/uL) % ChVh: −100.0%
  Body Weight % ChVh: 3.6%
  EOS % % ChVh: 5.5%
  EOS (K/uL) % ChVh: −50.0%
  HCT % % ChVh: 0.2%
  HGB % ChVh: −5.0%
  LYM % % ChVh: −0.1%
  LYM (K/uL) % ChVh: −58.8%
  Left Kidney (% body wt) % ChVh: −9.1%
  Left Kidney (gm) % ChVh: −11.8%
  Liver (% body wt) % ChVh: 4.1%
  Liver (gm) % ChVh: 7.9%
  MCH % ChVh: -4.5%
  MCHC % ChVh: -5.4%
  MCV % ChVh: 0.4%
  MONO % % ChVh: −34.0%
  MONO (K/uL) % ChVh: −70.0%
  MPV % ChVh: 4.3%
  NEUT % % ChVh: 3.7%
  NEUT (K/uL) % ChVh: −56.3%
  PLT % ChVh: 10.5%
  RBC % ChVh: −0.2%
  RDW % % ChVh: 0.6%
  Right Kidney (% body wt) % ChVh: −6.3%
  Right Kidney (gm) % ChVh: −3.6%
  Spleen (% body wt) % ChVh: 0.0%
  Spleen (gm) % ChVh: 3.2%
  WBC % ChVh: −58.5%
[3]
  BASO: 0.00 K/uL
  BASO %: 0.14%
  Body Weight: 17.981 gm
  EOS: 0.02 K/uL
  EOS %: 0.58%
  HCT %: 44.2%
  HGB: 13.2 g/dL
  LYM: 2.46 K/uL
  LYM %: 84.19%
  MCH: 14.7 pg
  MCHC: 29.9 g/dL
  MCV: 49.0 fL
  MONO: 0.03 K/uL
  MONO %: 0.93%
  MPV: 4.8 fL
  NEUT: 0.42 K/uL
  NEUT %: 14.16%
  PLT: 1196.5 K/uL
  RBC: 9.02 M/uL
  RDW %: 16.3%
  WBC: 2.93 K/uL
[4]
  2D. Individual chemistry, column 2 (head not shown; probably ALP): 144 and 160
  2D. Individual chemistry, column 3 (head not shown; probably ALT): 20 and 22
  2D. Individual chemistry, column 4 (head not shown; probably AST): 33 and 38
  2D. Individual chemistry, column 5 (head not shown; probably GGT): 0
  2D. Individual chemistry, column 6 (head not shown; probably albumin): 2.9
  2D. Individual chemistry, column 7 (head not shown; probably total protein): 4.7
  2D. Individual chemistry, column 8 (head not shown; probably globulin): 1.8
  2D. Individual chemistry, column 10 (head not shown; probably total bilirubin): 0.1
  2D. Individual chemistry, column 11 (head not shown; probably BUN): 29 and 35
  2D. Individual chemistry, column 12 (head not shown; probably creatinine): 0.2
  BASO: 0.00 K/uL
  BASO %: 0.14% and 0.13%
  Body Weight: 18.769 gm and 17.192 gm
  CHOL: 71 mg/dL and 59 mg/dL
  Ca: 9.0 mg/dL and 9.4 mg/dL
  Cl: 112 mEq/L and 117 mEq/L
  EOS: 0.02 K/uL
  EOS %: 0.50% and 0.66%
  GLUC: 254 mg/dL and 227 mg/dL
  HCT %: 45.9% and 42.5%
  HGB: 13.4 g/dL and 13.0 g/dL
  K: 3.5 mEq/L and 4.0 mEq/L
  LYM: 2.80 K/uL and 2.12 K/uL
  LYM %: 83.42% and 84.96%
  Left Kidney: 0.111 gm and 0.113 gm and 0.73 % body wt and 0.66 % body wt
  Liver: 1.111 gm and 0.988 gm and 5.92 % body wt and 5.75 % body wt
  MCH: 14.4 pg and 14.9 pg
  MCHC: 29.2 g/dL and 30.6 g/dL
  MCV: 49.2 fL and 48.8 fL
  MONO: 0.03 K/uL and 0.02 K/uL
  MONO %: 0.91% and 0.95%
  MPV: 4.6 fL and 4.9 fL
  NEUT: 0.51 K/uL and 0.33 K/uL
  NEUT %: 15.03% and 13.29%
  Na: 147 mEq/L and 149 mEq/L
  PLT: 990 K/uL and 1403 K/uL
  RBC: 9.33 M/uL and 8.70 M/uL
  RDW %: 16.4% and 16.2%
  Right Kidney: 0.137 gm and 0.127 gm and 0.73 % body wt and 0.74 % body wt
  Spleen: 0.081 gm and 0.048 gm and 0.43 % body wt and 0.28 % body wt
  WBC: 3.36 K/uL and 2.50 K/uL
[5]
  Lymph: 64 and 60 and 61 and 44
  Mast: 0
  Mat ery: 56 and 62 and 45 and 38
  Mat myel: 122 (2×) and 88 (2×) and 120 (2×) and 121 (2×)
  Plasma: 0
  Pro myel: 34 and 64 and 52 and 72
  Prol ery: 24 and 26 and 22 and 25
  Total Ery: 80 and 88 and 67 and 63
  Total myel: 156 and 152 and 172 and 193
[6]
  % Lymph: 21.3% and 20.0% and 20.3% and 14.7%
  % Mast: 0.0%
  % Mat ery: 18.7% and 20.7% and 15.0% and 12.7%
  % Plasma: 0.0%
  % Pro ery: 8.0% and 8.7% and 7.3% and 8.3%
  % Pro myel: 11.3% and 21.3% and 17.3% and 24.0%
  % T ery: 26.7% and 29.3% and 22.3% and 21.0%
  % T myel: 52.0% and 50.7% and 57.3% and 64.3%
  % mat myel: 40.7% and 29.3% and 40.0% and 40.3%
  M:E: 2.0 and 1.7 and 2.6 and 3.1
During and after treatment
  intestinal histology: No changes
[7]
  % Erythroid: 0% (3×) and 1%
  % Lymph: 94% (2×) and 90% (4×) and 86% (2×)
  % Macrophage: 2% (3×) and 0%
  % Mesenchymal: 0% (3×) and 2%
  % Myeloid: 4% and 7% and 9% and 10%
  % Plasma: 0% (3×) and 1%
[8]
  other blood counts, bone marrow cytology, serum chemistry: no other changes
  white cell count: reversible drop in white cell count with a nadir on day 19
